Test results from article PMC8400955 (Pharmaceuticals, 2021).
“And” between values parts separate entries of the source, which are not always exact repeats. Identical values can stand only once. “Also recorded” adds a separate entry of the source.

Legend:
CYP2C19 [1] = target: T1, CYP2C19 (Homo sapiens, UniProt P33261); experiment: CYP inhibition in human liver microsomes, CYP2C19; type: in vitro ADME; settings: HLM, marker substrate Mephenytoin
Description: (§1) . The inhibition of CYP2B6 and 3A4 (when midazolam was used as the substrate) by ZB716 was not observed. The inhibitory potential of ZB716 on human CYP enzyme activities appears relatively low.
(§2) The final concentrations of ZB716 in the incubation system were 0, 0.05, 0.15, 0.5, 1.5, 5, and 15 µM (final organic solvent concentration ≤ 1%). […] . […] The concentrations of the isoform-specific metabolites derived from marker substrates were measured by UPLC–MS/MS. The IC50 values were calculated from the percentages of the rate of the metabolite formation relative to non-inhibited controls vs. the concentrations of ZB716 or positive control inhibitors. All incubations were performed in triplicate. The mean of the enzyme activity (% of non-inhibited control) for each concentration was plotted against the log inhibitor concentration, and fitted to an IC50 curve.

CYP2B6 [2] = experiment: CYP induction (enzyme activity) in cryopreserved human hepatocytes, CYP2B6; settings: for fold induction at 72 h, 0.15 µM / fold induction at 72 h, 1.5 µM / fold induction at 72 h, 5 µM / fold induction at 72 h, 15 µM: human, plated cryopreserved human hepatocytes
CYP2D6 = CYP2D6 (Homo sapiens, UniProt P10635); experiment: CYP phenotyping, recombinant CYP2D6
CYP2B6 [3] = target: T2, CYP2B6 (Homo sapiens, UniProt P20813); experiment: CYP phenotyping, recombinant CYP2B6
T2 sequence (P20813 1-491): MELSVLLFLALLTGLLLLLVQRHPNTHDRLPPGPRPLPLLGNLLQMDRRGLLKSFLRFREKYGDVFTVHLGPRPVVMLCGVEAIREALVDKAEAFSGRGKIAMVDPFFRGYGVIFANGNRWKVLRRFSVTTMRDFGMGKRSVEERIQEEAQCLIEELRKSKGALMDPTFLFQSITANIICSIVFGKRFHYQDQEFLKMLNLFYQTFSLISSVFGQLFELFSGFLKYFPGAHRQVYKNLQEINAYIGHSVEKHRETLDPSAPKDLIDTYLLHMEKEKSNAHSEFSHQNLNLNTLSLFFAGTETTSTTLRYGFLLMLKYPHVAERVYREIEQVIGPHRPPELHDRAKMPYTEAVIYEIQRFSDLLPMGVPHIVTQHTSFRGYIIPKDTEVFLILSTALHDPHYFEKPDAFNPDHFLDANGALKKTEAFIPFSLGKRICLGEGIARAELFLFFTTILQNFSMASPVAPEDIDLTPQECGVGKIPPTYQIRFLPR

CYP2C19 [4] = target: T1, CYP2C19; experiment: CYP phenotyping, recombinant CYP2C19
CYP2C9 [5] = target: T3, CYP2C9 (Homo sapiens, UniProt P11712); experiment: CYP phenotyping, recombinant CYP2C9
rat hepatocytes = experiment: Metabolic stability in rat hepatocytes; type: in vitro ADME; settings: 1 μM
Description: (§3) Hepatocytes of humans (#X008001), dogs (#M00205), rats (#M00005), and mice (#M005052) were purchased from BioIVT, NY, USA. Monkey hepatocytes were procured from RILD, Shanghai, China. The metabolic stability of ZB716 in human, monkey, dog, rat and mouse hepatocytes was investigated by incubating ZB716 with human, monkey, dog, rat, and mouse hepatocytes (0.5 × 10^6 cells/mL), or with incubation medium only.
(§4) parent disappearance vs. incubation time curve.
(§5) Scaled-up Clint = kV/N × Scaling Factor
(§6) metabolite formed during the reaction.

[6] = Metabolic stability in rat hepatocytes; type: in vitro ADME
Description: as §3, §4, §5, §6

[7] = Metabolic stability in monkey hepatocytes; type: in vitro ADME
Description: as §3, §4, §5, §6

monkey hepatocytes = experiment: Metabolic stability in monkey hepatocytes; type: in vitro ADME; settings: 1 μM
Description: as §3, §4, §5, §6

CYP2B6 [8] = target: T2, CYP2B6; experiment: CYP inhibition in human liver microsomes, CYP2B6; type: in vitro ADME; settings: HLM, marker substrate Bupropion
Description: as §1, §2

CYP1A2 = target: T4, CYP1A2 (Homo sapiens, UniProt P05177); experiment: CYP phenotyping, recombinant CYP1A2
T4 sequence (P05177 1-516): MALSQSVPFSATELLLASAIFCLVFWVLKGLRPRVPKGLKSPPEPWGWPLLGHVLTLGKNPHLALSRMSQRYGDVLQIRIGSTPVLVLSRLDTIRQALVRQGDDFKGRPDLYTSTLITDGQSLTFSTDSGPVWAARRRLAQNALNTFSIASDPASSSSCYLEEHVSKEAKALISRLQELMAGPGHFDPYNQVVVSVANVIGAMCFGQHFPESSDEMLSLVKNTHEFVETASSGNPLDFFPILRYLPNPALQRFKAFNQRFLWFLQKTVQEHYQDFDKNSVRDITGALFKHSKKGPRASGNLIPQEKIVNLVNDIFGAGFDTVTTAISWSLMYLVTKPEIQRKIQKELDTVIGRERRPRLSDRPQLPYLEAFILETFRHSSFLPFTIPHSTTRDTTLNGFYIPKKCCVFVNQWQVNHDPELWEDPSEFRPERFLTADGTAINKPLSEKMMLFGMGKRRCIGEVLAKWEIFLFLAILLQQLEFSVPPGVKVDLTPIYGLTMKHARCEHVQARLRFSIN

CYP2C9 [9] = target: T3, CYP2C9; experiment: CYP inhibition in human liver microsomes, CYP2C9; type: in vitro ADME; settings: HLM, marker substrate Diclofenac
Description: as §1, §2

[10] = read-out: Estimated In Vitro t1/2

CYP2D6, sequence (P10635 whole entry): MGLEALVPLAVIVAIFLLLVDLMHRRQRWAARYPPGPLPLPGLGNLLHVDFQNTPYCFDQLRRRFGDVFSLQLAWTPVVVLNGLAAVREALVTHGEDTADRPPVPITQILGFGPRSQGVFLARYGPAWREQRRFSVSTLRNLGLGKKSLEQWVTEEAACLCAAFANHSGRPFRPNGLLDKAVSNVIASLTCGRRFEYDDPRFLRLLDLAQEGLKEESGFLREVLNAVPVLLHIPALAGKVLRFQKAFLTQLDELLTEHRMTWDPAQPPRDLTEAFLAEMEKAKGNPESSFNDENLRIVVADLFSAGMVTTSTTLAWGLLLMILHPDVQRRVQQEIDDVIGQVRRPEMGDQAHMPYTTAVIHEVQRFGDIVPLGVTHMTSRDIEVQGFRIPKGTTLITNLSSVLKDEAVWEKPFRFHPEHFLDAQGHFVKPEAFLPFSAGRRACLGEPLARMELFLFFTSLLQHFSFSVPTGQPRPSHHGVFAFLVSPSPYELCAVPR
T1 sequence (P33261 whole entry): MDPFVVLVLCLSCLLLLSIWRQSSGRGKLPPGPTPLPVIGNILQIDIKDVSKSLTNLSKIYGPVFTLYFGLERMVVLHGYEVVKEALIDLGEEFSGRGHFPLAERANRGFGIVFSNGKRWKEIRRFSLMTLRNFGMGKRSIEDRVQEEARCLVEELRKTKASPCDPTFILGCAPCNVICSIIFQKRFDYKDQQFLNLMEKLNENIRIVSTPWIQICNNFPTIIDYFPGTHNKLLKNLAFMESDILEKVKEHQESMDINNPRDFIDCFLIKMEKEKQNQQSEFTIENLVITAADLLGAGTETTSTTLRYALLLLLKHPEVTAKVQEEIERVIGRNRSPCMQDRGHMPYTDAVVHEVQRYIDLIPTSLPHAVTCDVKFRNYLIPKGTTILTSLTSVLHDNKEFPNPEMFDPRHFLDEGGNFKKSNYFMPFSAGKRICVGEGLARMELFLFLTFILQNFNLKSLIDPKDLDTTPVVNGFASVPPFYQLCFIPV
T3 sequence (P11712 whole entry): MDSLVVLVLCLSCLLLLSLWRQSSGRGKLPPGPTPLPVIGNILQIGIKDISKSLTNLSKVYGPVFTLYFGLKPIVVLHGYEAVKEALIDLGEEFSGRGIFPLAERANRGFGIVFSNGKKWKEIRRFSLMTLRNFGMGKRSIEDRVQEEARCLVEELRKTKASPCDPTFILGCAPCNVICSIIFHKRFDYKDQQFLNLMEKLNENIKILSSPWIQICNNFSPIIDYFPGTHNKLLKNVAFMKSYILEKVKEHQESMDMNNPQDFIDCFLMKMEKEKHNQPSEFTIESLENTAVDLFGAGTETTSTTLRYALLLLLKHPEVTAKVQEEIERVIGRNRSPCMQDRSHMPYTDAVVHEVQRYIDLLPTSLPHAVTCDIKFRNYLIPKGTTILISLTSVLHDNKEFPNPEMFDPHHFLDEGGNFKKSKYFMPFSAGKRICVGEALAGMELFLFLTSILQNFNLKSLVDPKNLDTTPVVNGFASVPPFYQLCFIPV

## C[C@]12CC[C@@H]3c4ccc(B(O)O)cc4C[C@@H](CCCCCCCCC[S+]([O-])CCCC(F)(F)C(F)(F)F)[C@H]3[C@@H]1CC[C@@H]2O (some centres unmarked) [ZB716, fulvestrant-3-boronic acid]
CYP2C19 [1]
  IC50: 2.2 µM
CYP2B6 [2]; all three donors, 1.5–15 μM
  induction fold compared to the vehicle control: 2.98–6.40
  induction percentage of the positive control: 37.4–92.1%
CYP2B6 [2]; donor one, 0.15 µM
  Percent of Control: 2.22%
  fold induction at 72 h, 0.15 µM: 1.1 ± 0.05
CYP2B6 [2]; donor one, 1.5 µM
  Percent of Control: 17.2%
  fold induction at 72 h, 1.5 µM: 1.77 ± 0.13
CYP2B6 [2]; donor one, 5 µM
  Percent of Control: 70.6%
  fold induction at 72 h, 5 µM: 4.14 ± 0.06
CYP2B6 [2]; donor one, 15 µM
  Percent of Control: 73.0%
  fold induction at 72 h, 15 µM: 4.24 ± 0.47
CYP2B6 [2]; donor three, 0.15 µM
  Percent of Control: 2.61%
  fold induction at 72 h, 0.15 µM: 1.14 ± 0.09
CYP2B6 [2]; donor three, 1.5 µM
  Percent of Control: 39.2%
  fold induction at 72 h, 1.5 µM: 3.07 ± 0.36
CYP2B6 [2]; donor three, 5 µM
  Percent of Control: 37.4%
  fold induction at 72 h, 5 µM: 2.98 ± 0.74
CYP2B6 [2]; donor three, 15 µM
  Percent of Control: 4.18%
  fold induction at 72 h, 15 µM: 1.22 ± 0.42
CYP2B6 [2]; donor two, 0.15 µM
  Percent of Control: 3.16%
  fold induction at 72 h, 0.15 µM: 1.19 ± 0.1
CYP2B6 [2]; donor two, 1.5 µM
  Percent of Control: 19.8%
  fold induction at 72 h, 1.5 µM: 2.16 ± 0.07
CYP2B6 [2]; donor two, 5 µM
  Percent of Control: 71.7%
  fold induction at 72 h, 5 µM: 5.21 ± 0.24
CYP2B6 [2]; donor two, 15 µM
  Percent of Control: 92.1%
  fold induction at 72 h, 15 µM: 6.4 ± 0.16
CYP2D6; human
  half-life at 2 µM: 18.3 ± 3.3 min
CYP2D6; recombinant CYP2D6, 2 µM ZB716
  Clint: 0.773 µL/min/pmol CYP and 0.773 ± 0.142 µL/min/pmol CYP
CYP2B6 [3]; human
  half-life at 2 µM: 41 ± 6.8 min
CYP2B6 [3]; recombinant CYP2B6, 2 µM ZB716
  Clint: 0.343 ± 0.052 µL/min/pmol CYP
CYP2C19 [4]; human
  half-life at 2 µM: 21.6 ± 2 min
CYP2C19 [4]; recombinant CYP2C19, 2 µM ZB716
  Clint: 0.646 ± 0.063 µL/min/pmol CYP
CYP2C9 [5]; human
  half-life at 2 µM: 18.6 ± 0.4 min
CYP2C9 [5]; recombinant CYP2C9, 2 µM ZB716
  Clint: 0.746 ± 0.015 µL/min/pmol CYP
Rat hepatocytes
  Remaining at 120 min: 5.19 ± 0.32%
[6]; [10]
  half-life at 1 μM: 28.4 ± 0.9 min
[6]; read-out: In Vitro Clint
  hepatocyte CLint at 1 μM: 48.7 ± 1.5 µL/min/1e6 cells
[6]; read-out: Scaled-Up Clint
  CLint scaled at 1 μM: 13.7 ± 0.42 L/h/kg
[7]; [10]
  half-life at 1 μM: 27.6 ± 2 min
[7]; read-out: In Vitro Clint
  hepatocyte CLint at 1 μM: 50.3 ± 3.6 µL/min/1e6 cells
[7]; read-out: Scaled-Up Clint
  CLint scaled at 1 μM: 10.9 ± 0.78 L/h/kg
Monkey hepatocytes
  Remaining at 120 min: 4.41 ± 0.46%
CYP2B6 [8]
  IC50: not observed; also recorded: No Inhibition
CYP1A2; human
  half-life at 2 µM: 16.2 ± 2.2 min
CYP1A2; recombinant CYP1A2, 2 µM ZB716
  Clint: 0.866 ± 0.120 µL/min/pmol CYP
CYP2C9 [9]
  IC50: 4.77 µM
